Where a SMILES comes first, the peptide text is derived from it.
Experiments:
NADPH oxidase [1] = target: T1, NADPH oxidase (Homo sapiens, UniProt P14598); experiment: Cell-free NADPH oxidase assay (arachidonate-stimulated O2 generation, neutrophil membrane plus cytosol); type: biochemical; conditions: for Mean inhibition vs. buffer control (n), Cell-free assay: 100 μM synthetic peptide, arachidonate-stimulated O2 production, mean of n experiments in duplicate
T1 construct: Neutrophils were electropermeabilized as described; endogenous in cells; host or cells: electropermeabilized peripheral blood neutrophils (PMN), stimulated with PMA or fMLP
T1 sequence (P14598 1-390): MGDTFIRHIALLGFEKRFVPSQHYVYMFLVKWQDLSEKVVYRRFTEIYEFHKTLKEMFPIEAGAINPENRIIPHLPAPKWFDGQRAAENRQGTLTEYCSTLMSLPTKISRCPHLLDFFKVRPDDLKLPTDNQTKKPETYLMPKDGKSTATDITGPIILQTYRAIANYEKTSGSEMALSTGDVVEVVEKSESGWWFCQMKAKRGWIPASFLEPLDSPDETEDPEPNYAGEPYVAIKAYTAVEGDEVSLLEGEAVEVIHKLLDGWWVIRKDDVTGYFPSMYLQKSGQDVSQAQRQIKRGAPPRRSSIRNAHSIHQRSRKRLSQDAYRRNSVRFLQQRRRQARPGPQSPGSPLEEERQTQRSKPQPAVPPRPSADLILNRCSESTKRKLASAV
Procedure: Neutrophils were isolated from peripheral blood and cytosol and membrane fractions were prepared by differential centrifugation as previously described (Nunoi et al, Science, 242, 1298-1301 (1988)). Typical yields of cytosol and membrane proteins obtained were 2.8±0.1 mg/10^8 cell equivalents and 1.5±0.1 μg/10^6 cell equivalents, respectively (mean±SD, 3 separate preparations). The cell-free assay of O2 generation was modified as follows: wells contained 2.5-5.0×10^5cell equivalents neutrophil membrane, 10^6 cell equivalents neutrophil cytosol in a final volume of 100 μl reaction mixture (150 μM acetylated ferricytochrome c (11), 4 mM MgCl2, 10 μM FAD, 1 mM EGTA, 200 μM NADPH, 40 μM arachidonic acid, 10 μM GTPγ S, ±25 μg/ml superoxide dismutase in 75 mM potassium phosphate, pH 7.0). Because membrane preparations varied in activity, the amount of membrane added per well was adjusted to yield an arachidonate-stimulated O2 production of ≈0.4 nmol/min/well in the absence of synthetic peptide. The maximal linear rate of superoxide dismutase-inhibitable acetylferricytochrome c reduction (ΔO.D. […]) was converted to nmol O2 generated/min using an instrument-corrected extinction coefficient derived empirically as described (Leslie, J. Immunol. Methods, 103, 253-259 (1987)). To measure oxidase inhibition by antibodies directed against the 91 kDa subunit of cytochrome b558 membranes were solubilized in 1% deoxycholate, incubated for 30 min on ice with an equal volume of serum at various dilutions. Diluting these samples 10-fold with H2 O lowered the detergent concentration below the CMC and allowed sedimentation (130,000 g×30 min) of an oxidase-competent membrane fraction. This fraction was resolubilized in deoxycholate, and assayed for arachidonate-stimulatedO2 generation in the presence of cytosol.
In Table 1 above, the cell-free assay of O2 generation contained 2.5-5.0×10^5 cell equivalents of neutrophil (PMN) membrane, 10^6 cell equivalents PMN cytosol in a final volume of 100 μl reaction mixture. Because membrane preparations varied in activity, the amount of membrane added per well was adjusted to yield an arachidonate-stimulated O2 production of ≈0.4 nmol/min/well in the absence of synthetic peptide. Data represent the mean percent inhibition obtained in n experiments (each performed in duplicate) in the presence of 100 μM synthetic peptide compared to a simultaneous buffer control.

[2] = target: T2, 47 kDa cytosolic oxidase factor (Homo sapiens, UniProt P14598); experiment: 47 kDa cytosolic protein phosphorylation in the cell-free reaction (immunoprecipitation, SDS-PAGE, autoradiography); type: biochemical; conditions: densitometry of autoradiograms; 3 independent experiments; read-out: Half-maximal inhibitory concentration, 47 kDa protein phosphorylation
T2 construct: endogenous in cells; host or cells: neutrophil cytosol, with neutrophil membrane, in the cell-free reaction
T2 sequence (P14598 1-390): T1 sequence (P14598 1-390)
Procedure: Components of the cell-free phosphorylation reaction were identical to those for arachidonate-stimulated O2^- generation except for omission of acetylferricytochrome c and inclusion of γ-[^32 P]ATP (0.1 μCi/ml, sp. act. 5000 Ci/mmol). Twenty min after addition of arachidonate, aliquots of the cell-free reaction mixture were mixed with an equal volume of iced "stopping" buffer (150 mM NaCl, 10 mM EDTA, 1% deoxycholate, 1% NP-40, 50 mMNaF, 1 mMNa vanadate, 10 mM Tris, pH 7.4). Proteins bound to rabbit antibodies raised against recombinant 47 kDa protein (Lomax et al, Science, 245, 409-412 (1989)), were precipitated with protein G-sepharose (Harlow et al, Antibodies: A Laboratory Manual (Cold Spring Harbor Laboratory), 465-468 (1988)) and analyzed by SDS-PAGE and autoradiography with intensifying screens.
After stimulation of the neutrophil respiratory burst with phorbol esters the 47 kDa cytosolic oxidase factor is multiply phosphorylated and associates with plasma membrane. […] The immunoprecipitated proteins were analyzed by SDS-PAGE and autoradiography as described above. […] The half-maximal inhibitory concentration of 91 kDa cytochrome b558 carboxyterminal peptide determined by densitometry of autoradiograms was in the range of 25-50 μM in each of 3 independent experiments.

NADPH oxidase [3] = target: T1, NADPH oxidase; experiment: Permeabilized cell NADPH oxidase assay (electropermeabilized neutrophils stimulated with PMA or fMLP); type: cell-based; conditions: for Mean inhibition vs. buffer control (n), Electropermeabilized cell, PMA: PMA 10 ng/ml; for Mean inhibition vs. buffer control (n), Electropermeabilized cell, PMA / Mean inhibition vs. buffer control (n), Electropermeabilized cell, FMLP: preincubation with 800 μM peptide, assay with 200 μM peptide; for Mean inhibition vs. buffer control (n), Electropermeabilized cell, FMLP: fMLP 10 μM
Procedure: Neutrophils were electropermeabilized as described (Grinstein et al, J. Biol. Chem., 263, 1779-1783 (1988)), incubated on ice for 30 min in permeabilization buffer (140 mM KCl, 1 mM MgCl2, 1 mM EGTA, 0.193 mM CaCl2, 1 mM ATP, 2 mM NADPH, 10 μM GTP, 10 mM glucose, 10 mM HEPES-N-methylglucamine, pH 7) supplemented with synthetic peptide (800 μM). The cells were resuspended at 5×10^6 /ml in the same buffer containing 200 μM synthetic peptide, 150 μM acetylferricytochrome c, catalase (2500 U/ml), ±25 μg/ml superoxide dismutase. Wells containing 5×10^5 cells were stimulated with PMA (10 ng/ml) or fMLP (10 μM) and O2^-- production was determined as above.
Electropermeabilized PMN were incubated on ice in permeabilization buffer supplemented with synthetic peptide (800 μM). The cells were resuspended at 5×10^6 /ml in the same buffer containing 200 μM synthetic peptide. Wells containing 5×10^5 cells were stimulated with PMA (10 ng/ml) or fMLP (10 μM) and O2 production was determined as described in "Experimental Procedures". […] Electropermeabilized PMN sham incubated without synthetic peptides and stimulated with […] or fMLP generated 8.4±1.1 nmol O2 /min/10^6 cells and 8.9±1.7 nmol O2 /min/10^6 cells, respectively (mean±SEM, 5 independent experiments).

CC[C@H](C)[C@H](NC(=O)[C@H](Cc1ccccc1)NC(=O)[C@H](Cc1c[nH]cn1)NC(=O)[C@@H](NC(=O)CNC(=O)[C@H](CCCNC(=N)N)NC(=O)[C@@H]1CCCN1C(=O)CNC(=O)[C@H](CO)NC(=O)[C@H](CCC(=O)O)NC(=O)[C@H](CO)NC(=O)[C@H](CC(N)=O)NC(=O)[C@H](CO)NC(=O)[C@@H](N)CS)C(C)C)C(=O)N[C@@H](Cc1ccccc1)C(=O)N[C@@H](CC(N)=O)C(=O)N[C@@H](CCCCN)C(=O)N[C@@H](CCC(=O)O)C(=O)N[C@@H](CC(N)=O)C(=O)N[C@@H](Cc1ccccc1)C(=O)O (H-CSNSESGPRGVHFIFNKENF-OH)
IC50 (NADPH oxidase [1]; peptide and arachidonate added simultaneously, 5 experiments, IC50 by interpolation, read-out: Mean IC50 ±SEM, inhibition of NADPH oxidase activation): 32 ± 2 µM | IC50 [2]: 25 to 50 µM

NC(N)=NCCC[C@H](NC(=O)[C@H](Cc1ccccc1)NC(=O)[C@@H]1CCCN1C(=O)[C@H](CO)NC(=O)[C@H](Cc1ccccc1)NC(=O)CNC(=O)[C@@H]1CCCN1C(=O)[C@@H]1CCCN1C(=O)[C@@H](N)CCCN=C(N)N)C(=O)O [Bradykinin] (H-RPPGFSPFR-OH)
Mean inhibition vs. buffer control (n), Electropermeabilized cell, PMA (NADPH oxidase [3]): -8% | Mean inhibition vs. buffer control (n), Electropermeabilized cell, FMLP (NADPH oxidase [3]): -6% | Mean inhibition vs. buffer control (n), Cell-free assay (NADPH oxidase [1]): -8%

CC(C)[C@H](NC(=O)[C@H](C)NC(=O)[C@H](Cc1c[nH]c2ccccc12)NC(=O)[C@H](CC(N)=O)NC(=O)CN)C(=O)N[C@@H](CC(N)=O)C(=O)N[C@@H](CCC(=O)O)C(=O)NCC(=O)N[C@@H](CS)C(=O)O [GNWAVNEGC] (H-GNWAVNEGC-OH)
Mean inhibition vs. buffer control (n), Cell-free assay (NADPH oxidase [1]): -17%

CC(C)C[C@H](NC(=O)[C@@H](N)Cc1c[nH]cn1)C(=O)N[C@@H](Cc1ccccc1)C(=O)N[C@@H](CC(N)=O)C(=O)N[C@H](C(=O)N[C@@H](CCC(=O)O)C(=O)N[C@@H](Cc1c[nH]c2ccccc12)C(=O)N[C@@H](CS)C(=O)O)C(C)C [HLFNVEWC] (H-HLFNVEWC-OH)
Mean inhibition vs. buffer control (n), Electropermeabilized cell, PMA (NADPH oxidase [3]): -6% | Mean inhibition vs. buffer control (n), Electropermeabilized cell, FMLP (NADPH oxidase [3]): 6% | Mean inhibition vs. buffer control (n), Cell-free assay (NADPH oxidase [1]): -17%

CC[C@H](C)[C@H](NC(=O)[C@H](Cc1ccccc1)NC(=O)[C@H](Cc1c[nH]cn1)NC(=O)[C@@H](NC(=O)CNC(=O)[C@@H](N)CCCNC(=N)N)C(C)C)C(=O)N[C@@H](Cc1ccccc1)C(=O)O [RGVHFIF, Arg--Gly--Val--His--Phe--Ile--Phe] (H-RGVHFIF-OH)
Mean inhibition vs. buffer control (n), Electropermeabilized cell, PMA (NADPH oxidase [3]): 72% | Mean inhibition vs. buffer control (n), Electropermeabilized cell, FMLP (NADPH oxidase [3]): 73% | Mean inhibition vs. buffer control (n), Cell-free assay (NADPH oxidase [1]): 97%

CC[C@H](C)[C@H](NC(=O)[C@@H](NC(=O)[C@H](C)NC(=O)[C@H](CCC(N)=O)NC(=O)[C@H](Cc1ccccc1)NC(=O)CNC(=O)[C@H](C)NC(=O)[C@H](Cc1c[nH]cn1)NC(=O)[C@H](C)NC(=O)[C@H](CCCNC(=N)N)NC(=O)[C@H](CCCCN)NC(=O)[C@@H](N)CCCNC(=N)N)[C@@H](C)O)C(=O)O [RKRAHAGFQATI] (H-RKRAHAGFQATI-OH)
Mean inhibition vs. buffer control (n), Electropermeabilized cell, PMA (NADPH oxidase [3]): -11% | Mean inhibition vs. buffer control (n), Electropermeabilized cell, FMLP (NADPH oxidase [3]): -28% | Mean inhibition vs. buffer control (n), Cell-free assay (NADPH oxidase [1]): -5%

CC[C@H](C)[C@H](NC(=O)[C@H](Cc1ccccc1)NC(=O)[C@H](Cc1c[nH]cn1)NC(=O)[C@@H](NC(=O)CNC(=O)[C@H](CCCNC(=N)N)NC(=O)[C@@H]1CCCN1C(=O)CNC(=O)[C@H](CO)NC(=O)[C@H](CCC(=O)O)NC(=O)[C@H](CO)NC(=O)[C@H](CC(N)=O)NC(=O)[C@@H](N)CO)C(C)C)C(=O)N[C@@H](Cc1ccccc1)C(=O)N[C@@H](CC(N)=O)C(=O)N[C@@H](CCCCN)C(=O)N[C@@H](CCC(=O)O)C(=O)N[C@@H](CC(N)=O)C(=O)N[C@@H](Cc1ccccc1)C(=O)O [SNSESGPRGVHFIFNKENF] (H-SNSESGPRGVHFIFNKENF-OH)
Mean inhibition vs. buffer control (n), Cell-free assay (NADPH oxidase [1]): 96%

NC(=O)C[C@H](NC(=O)[C@@H](N)CO)C(=O)N[C@@H](CO)C(=O)N[C@@H](CCC(=O)O)C(=O)N[C@@H](CO)C(=O)NCC(=O)N1CCC[C@H]1C(=O)O [SNSESGP] (H-SNSESGP-OH)
Mean inhibition vs. buffer control (n), Electropermeabilized cell, PMA (NADPH oxidase [3]): -1% | Mean inhibition vs. buffer control (n), Electropermeabilized cell, FMLP (NADPH oxidase [3]): 2% | Mean inhibition vs. buffer control (n), Cell-free assay (NADPH oxidase [1]): -8%

CSCC[C@H](NC(=O)[C@H](CO)NC(=O)[C@H](Cc1ccccc1)NC(=O)[C@@H](N)C(C)C)C(=O)N[C@@H](Cc1ccccc1)C(=O)N[C@@H](CCC(N)=O)C(=O)NCC(=O)N[C@@H](CCC(=O)O)C(=O)N[C@@H](CCC(=O)O)C(=O)N[C@@H](CO)C(=O)O [VFSMFQGEES] (H-VFSMFQGEES-OH)
Mean inhibition vs. buffer control (n), Electropermeabilized cell, PMA (NADPH oxidase [3]): 3% | Mean inhibition vs. buffer control (n), Electropermeabilized cell, FMLP (NADPH oxidase [3]): -5% | Mean inhibition vs. buffer control (n), Cell-free assay (NADPH oxidase [1]): 10%

RGVHFIFNKENF [Residues 559-570 of the 91 kDa subunit of cytochrome b558]
Mean inhibition vs. buffer control (n), Electropermeabilized cell, PMA (NADPH oxidase [3]): 61% | Mean inhibition vs. buffer control (n), Electropermeabilized cell, FMLP (NADPH oxidase [3]): 67% | Inhibition of O2 production by electropermeabilized neutrophils (in words) (NADPH oxidase [3]; stimulated with fMLP or PMA): inhibited | Mean inhibition vs. buffer control (n), Cell-free assay (NADPH oxidase [1]): 93%
